Reference: ChEMBL document CHEMBL1165948, “The scope of thallium nitrate oxidative cyclization of chalcones; synthesis and evaluation of isoflavone and aurone analogs for their inhibitory activity against interleukin-5” (Bioorg Med Chem, 2010)

What follows are molecules tested against T1, Interleukin-5 (Mus musculus) (UniProt P04401) (assay: Inhibition of IL5-mediated proliferation of mouse Y16 cells at 50 uM by WST1 assay).
T1 sequence (whole entry): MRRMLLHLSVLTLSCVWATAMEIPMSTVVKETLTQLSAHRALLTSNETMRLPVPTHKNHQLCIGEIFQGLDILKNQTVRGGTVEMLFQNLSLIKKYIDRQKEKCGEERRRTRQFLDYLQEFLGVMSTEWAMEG
Format: cell-based
COc1ccc(-c2coc3cccc(OCC4CCCCC4)c3c2=O)c(OC)c1 showed an inhibition of 15.6%. For CCc1ccc(-c2coc3cccc(OCC4CCCCC4)c3c2=O)cc1, the inhibition was 9.7%. COc1cc(-c2coc3cccc(OCC4CCCCC4)c3c2=O)cc(OC)c1OC was tested, and the inhibition was > 100%. For O=Cc1ccc(/C=C2\Oc3cccc(OCC4CCCCC4)c3C2=O)cc1, the inhibition was 8%. COc1ccc(-c2coc3cccc(OCC4CCCCC4)c3c2=O)cc1OC gave an inhibition of 30.6%. COCOc1ccc(-c2coc3cccc(OCC4CCCCC4)c3c2=O)cc1 was tested, and the inhibition was 10.5%. For O=C1/C(=C/c2ccc(Cl)cc2)Oc2cccc(OCC3CCCCC3)c21, the inhibition was 12.2%. For CCc1ccc(/C=C2\Oc3cccc(OCC4CCCCC4)c3C2=O)cc1, the inhibition was 3.8%. For O=C1/C(=C/c2ccc([N+](=O)[O-])cc2)Oc2cccc(OCC3CCCCC3)c21, the inhibition was 5.7%. With O=c1c(-c2ccc(O)cc2)coc2cccc(OCC3CCCCC3)c12 the inhibition was 91.7%. O=c1c(-c2ccc(O[C@@H]3O[C@H](CO)[C@@H](O)[C@H](O)[C@H]3O)cc2)coc2cc(O)cc(O)c12 showed an inhibition of 92.1%. Work on O=C1/C(=C/c2ccccc2)Oc2cccc(OCC3CCCCC3)c21 yielded an inhibition of 3.1%. COc1ccc(-c2coc3cccc(OCC4CCCCC4)c3c2=O)cc1 gave an inhibition of 15.4%. COC(=O)c1ccc(/C=C2\Oc3cccc(OCC4CCCCC4)c3C2=O)cc1 gave an inhibition of 3.5%. With COc1cc(-c2coc3cccc(OCC4CCCCC4)c3c2=O)ccc1OCc1ccccc1 the inhibition was 99.8%. For COc1cc(-c2coc3cccc(OCC4CCCCC4)c3c2=O)ccc1O, the inhibition was 15.7%.
